The values below are quoted from earlier work in US11293915B2, “Bio-adhesive gels and methods of use” (Cornell University, priority 2014, dated 2022).

The conditions of this data set: DTT incorporated hydrogels, DTT concentrations up to 70 mM.

With `O[C@H](CS)[C@H](O)CS` (racemic) [DTT, dithiothreitol], the cytotoxicity entry was “do not cause significant cytotoxicity”.
